Values quoted from earlier work in patent US12116550B2, “Process of making a liquid conditioning composition” (The Procter & Gamble Company, priority 2020, dated 2024).

Conditions: nonionic surfactants of Table A, value reported for the trade product

Reported HLB	Substance
4.7	Sorbitan isostearate [Span 120]
4.3	Sorbitan monooleate [Span 80]
6.7	Sorbitan monopalmitate [Span 40]
4.7	Sorbitan monostearate [Span 60]
